Where two headings read alike, the source gives them in different places.
How the values were obtained:
[1] = test system: intracranial NCI-N87-luc human gastric carcinoma xenografts; experiment: intracranial antitumor effect, NCI-N87-luc xenografts; assay type: in vivo, nude mice; conditions: Day 22
Procedure: The intracranial antitumor effect of Compound (1) was evaluated using Compound (1) in nude mice intracranially implanted with NCI-N87-luc cells, which were engineered to stably express the luciferase gene using the HER2-overexpressing NCI-N87 human gastric carcinoma cell line. Compound (1) dosing suspensions using 0.5% w/v HPMC as vehicle were prepared with Compound (1) at 3 dose levels (16.0, 20.0, or 25.0 mg/kg/day) and administered PO QD for 21 days. The control group received 0.5% weight per volume (w/v) hydroxypropyl methylcellulose (HPMC) solution orally once daily for 21 days. The antitumor effect of poziotinib was also evaluated using this model. Poziotinib was administered PO QD for 21 days at 2 dose levels (0.5 or 1.0 mg/kg/day).

human BCRP = target: T1, human BCRP (Homo sapiens, UniProt Q9UNQ0); conditions: not told
T1 sequence (Q9UNQ0 1-655): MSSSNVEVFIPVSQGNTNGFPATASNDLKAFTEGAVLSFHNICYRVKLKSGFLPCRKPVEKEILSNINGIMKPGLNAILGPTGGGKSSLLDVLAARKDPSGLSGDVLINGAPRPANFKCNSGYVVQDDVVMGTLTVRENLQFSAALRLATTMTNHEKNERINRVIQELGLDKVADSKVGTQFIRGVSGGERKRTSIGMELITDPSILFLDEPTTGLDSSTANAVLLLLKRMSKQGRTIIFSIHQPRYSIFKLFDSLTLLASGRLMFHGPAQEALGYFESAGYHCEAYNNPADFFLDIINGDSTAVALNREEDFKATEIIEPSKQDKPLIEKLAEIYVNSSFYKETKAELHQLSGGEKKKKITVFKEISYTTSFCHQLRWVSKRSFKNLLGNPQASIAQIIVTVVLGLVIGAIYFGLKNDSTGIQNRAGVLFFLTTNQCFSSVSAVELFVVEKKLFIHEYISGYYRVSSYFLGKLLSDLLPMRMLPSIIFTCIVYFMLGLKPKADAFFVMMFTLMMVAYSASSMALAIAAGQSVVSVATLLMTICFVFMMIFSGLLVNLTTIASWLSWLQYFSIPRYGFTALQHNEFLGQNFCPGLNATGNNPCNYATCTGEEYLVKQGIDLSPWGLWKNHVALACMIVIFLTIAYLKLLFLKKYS

HER2 V777L = HER2 V777L (Homo sapiens, UniProt P04626, V777L); experiment: in vitro kinase assay (enzyme assay); assay type: biochemical; conditions: human recombinant enzyme; read-out: IC50 (Mean ± SD)
Procedure: (§1) To investigate the inhibitory effect of Compound (1) on HER2 enzyme activity, the mean±standard deviation (SD) of half-maximal inhibitory concentration (IC50) values of Compound (1) against human recombinant enzymes of HER2 and its mutants were determined by in vitro kinase assays (Table 1).

HER2 = HER2 (Homo sapiens, UniProt P04626); experiment: in vitro kinase assay (enzyme assay); assay type: biochemical; conditions: human recombinant enzyme; read-out: IC50 (Mean ± SD)
Procedure: as §1

HER2 A775_G776insYVMA = HER2 A775_G776insYVMA (Homo sapiens, UniProt P04626, INS775YVMA); experiment: in vitro kinase assay (enzyme assay); assay type: biochemical; conditions: human recombinant enzyme; read-out: IC50 (Mean ± SD)
Procedure: as §1

257 kinases = experiment: panel enzyme assay of 257 kinases, whole panel; assay type: biochemical; conditions: 1000 nmol/L
Procedure: To investigate further kinase selectivity of Compound (1), a panel enzyme assay of 257 kinases for Compound (1) was conducted.

A-431 cells = experiment: growth inhibitory effect in human cancer cell lines (GI50); assay type: cell-based; conditions: wild-type EGFR gene amplification
Source text: (§2) Wild-type EGFR gene amplification without HER2 amplification has been observed in A-431 cells. HCC827 cells (lung cancer) have been reported as harboring an EGFR activating mutation (DelE746_A750). NCI-H1975 cells (lung cancer) have been reported as having activating and acquired EGFR resistance mutations (L858R and T790M).

NCI-H1975 cells = experiment: as above; assay type: cell-based; conditions: lung cancer, EGFR L858R and T790M
Source text: as §2

HCC827 cells = experiment: as above; assay type: cell-based; conditions: lung cancer, EGFR DelE746_A750
Source text: as §2

[2] = test system: MCF10A_HER2/insYVMA_v human mammary epithelial xenografts; experiment: antitumor effect in nude mice bearing MCF10A_HER2/insYVMA_v xenografts; assay type: in vivo; conditions: for T/C ratio of the mean tumor volume: Day 15
Procedure: The antitumor effect of Compound (1) was evaluated in a nude mouse xenograft model of MCF10A_HER2/insYVMA_v. MCF10A_HER2/insYVMA_v was established as stably growing cells in vivo derived from MCF10A HER2/insYVMA (a human mammary epithelial cell line engineered to express the HER2 exon 20 insertion mutation A775_G776insYVMA) xenografts subcutaneously transplanted into nude mice. Compound (1) suspensions (using 0.5% w/v HPMC as vehicle) were administered orally once daily to mice at doses of 7.8, 12.5, or 20.0 mg/kg/day for 14 days. The control group received 0.5% weight per volume (w/v) hydroxypropyl methylcellulose (HPMC) solution orally once daily for 14 days.
In addition, the antitumor effect of poziotinib (an irreversible inhibitor of EGFR, HER2, and HER4) was also evaluated using this model.

[3] = plasma protein binding, equilibrium dialysis; assay type: in vitro ADME
Procedure: Plasma protein binding of Compound (1). Plasma protein binding of Compound (1) in mice, rats, dogs, monkeys, and humans was determined using the equilibrium dialysis method.

HER2 V777L, sequence (P04626 23-1255 V777L): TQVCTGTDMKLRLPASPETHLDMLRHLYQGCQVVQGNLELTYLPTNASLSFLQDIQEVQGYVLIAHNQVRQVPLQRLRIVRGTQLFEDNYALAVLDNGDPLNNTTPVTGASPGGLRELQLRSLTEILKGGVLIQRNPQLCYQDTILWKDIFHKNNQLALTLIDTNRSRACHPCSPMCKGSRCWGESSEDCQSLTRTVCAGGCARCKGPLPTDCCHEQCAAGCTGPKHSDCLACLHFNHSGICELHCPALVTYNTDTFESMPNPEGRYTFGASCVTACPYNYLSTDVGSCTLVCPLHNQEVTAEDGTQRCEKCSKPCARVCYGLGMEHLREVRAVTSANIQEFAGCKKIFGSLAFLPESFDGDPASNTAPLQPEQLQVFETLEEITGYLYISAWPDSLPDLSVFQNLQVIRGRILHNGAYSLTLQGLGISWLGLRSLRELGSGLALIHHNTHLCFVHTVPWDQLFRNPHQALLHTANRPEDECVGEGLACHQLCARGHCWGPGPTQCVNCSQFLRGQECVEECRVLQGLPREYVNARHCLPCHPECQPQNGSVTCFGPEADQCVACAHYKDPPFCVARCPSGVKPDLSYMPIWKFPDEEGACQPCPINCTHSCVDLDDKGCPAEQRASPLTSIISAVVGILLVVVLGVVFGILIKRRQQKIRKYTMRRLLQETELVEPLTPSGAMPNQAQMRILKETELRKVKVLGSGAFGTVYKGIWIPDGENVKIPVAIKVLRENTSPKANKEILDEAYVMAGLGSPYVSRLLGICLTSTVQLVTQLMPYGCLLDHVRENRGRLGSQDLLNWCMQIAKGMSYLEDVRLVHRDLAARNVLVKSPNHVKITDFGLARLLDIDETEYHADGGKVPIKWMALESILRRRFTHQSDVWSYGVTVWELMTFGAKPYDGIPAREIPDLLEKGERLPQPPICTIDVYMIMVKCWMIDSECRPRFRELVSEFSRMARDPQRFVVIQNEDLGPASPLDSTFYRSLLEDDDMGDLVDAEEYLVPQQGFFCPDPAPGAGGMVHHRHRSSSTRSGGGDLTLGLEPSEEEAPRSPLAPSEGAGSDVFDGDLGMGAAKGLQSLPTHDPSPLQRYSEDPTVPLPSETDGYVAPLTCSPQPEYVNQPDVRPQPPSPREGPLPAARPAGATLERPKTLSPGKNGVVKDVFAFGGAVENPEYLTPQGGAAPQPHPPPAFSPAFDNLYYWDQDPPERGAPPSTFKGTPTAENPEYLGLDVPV
HER2, sequence (P04626 23-1255): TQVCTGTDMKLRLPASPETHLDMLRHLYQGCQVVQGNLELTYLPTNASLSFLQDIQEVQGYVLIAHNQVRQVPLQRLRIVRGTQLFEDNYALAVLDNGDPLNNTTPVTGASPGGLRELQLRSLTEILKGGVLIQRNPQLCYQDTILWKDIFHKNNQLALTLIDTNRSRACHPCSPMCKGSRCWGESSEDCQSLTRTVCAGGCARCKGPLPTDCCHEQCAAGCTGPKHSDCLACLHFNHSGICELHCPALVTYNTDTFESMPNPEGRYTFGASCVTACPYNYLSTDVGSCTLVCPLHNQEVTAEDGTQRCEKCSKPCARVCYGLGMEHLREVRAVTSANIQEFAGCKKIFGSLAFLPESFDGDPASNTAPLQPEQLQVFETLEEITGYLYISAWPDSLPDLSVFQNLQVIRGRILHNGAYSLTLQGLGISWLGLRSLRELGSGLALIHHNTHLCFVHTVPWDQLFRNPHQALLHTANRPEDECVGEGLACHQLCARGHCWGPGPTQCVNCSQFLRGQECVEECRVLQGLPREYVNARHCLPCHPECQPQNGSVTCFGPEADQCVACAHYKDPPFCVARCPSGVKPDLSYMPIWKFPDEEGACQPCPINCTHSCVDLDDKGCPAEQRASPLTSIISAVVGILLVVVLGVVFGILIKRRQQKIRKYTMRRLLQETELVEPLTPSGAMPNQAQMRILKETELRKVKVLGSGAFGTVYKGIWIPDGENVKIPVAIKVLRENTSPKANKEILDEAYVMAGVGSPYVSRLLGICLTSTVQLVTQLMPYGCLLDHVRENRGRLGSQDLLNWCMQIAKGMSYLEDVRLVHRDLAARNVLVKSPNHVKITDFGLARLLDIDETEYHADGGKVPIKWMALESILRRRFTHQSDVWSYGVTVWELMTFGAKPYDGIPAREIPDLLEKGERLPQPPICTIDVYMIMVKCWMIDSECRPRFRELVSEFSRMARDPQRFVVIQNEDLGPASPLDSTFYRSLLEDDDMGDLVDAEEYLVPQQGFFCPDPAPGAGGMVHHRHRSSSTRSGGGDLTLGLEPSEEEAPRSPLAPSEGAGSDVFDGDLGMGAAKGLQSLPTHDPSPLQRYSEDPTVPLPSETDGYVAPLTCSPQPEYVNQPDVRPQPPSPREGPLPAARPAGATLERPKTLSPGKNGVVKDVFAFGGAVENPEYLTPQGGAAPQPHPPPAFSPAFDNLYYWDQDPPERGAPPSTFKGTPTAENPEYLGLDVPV
HER2 A775_G776insYVMA, sequence (P04626 with tags, fused parts or gaps INS775YVMA limits assumed): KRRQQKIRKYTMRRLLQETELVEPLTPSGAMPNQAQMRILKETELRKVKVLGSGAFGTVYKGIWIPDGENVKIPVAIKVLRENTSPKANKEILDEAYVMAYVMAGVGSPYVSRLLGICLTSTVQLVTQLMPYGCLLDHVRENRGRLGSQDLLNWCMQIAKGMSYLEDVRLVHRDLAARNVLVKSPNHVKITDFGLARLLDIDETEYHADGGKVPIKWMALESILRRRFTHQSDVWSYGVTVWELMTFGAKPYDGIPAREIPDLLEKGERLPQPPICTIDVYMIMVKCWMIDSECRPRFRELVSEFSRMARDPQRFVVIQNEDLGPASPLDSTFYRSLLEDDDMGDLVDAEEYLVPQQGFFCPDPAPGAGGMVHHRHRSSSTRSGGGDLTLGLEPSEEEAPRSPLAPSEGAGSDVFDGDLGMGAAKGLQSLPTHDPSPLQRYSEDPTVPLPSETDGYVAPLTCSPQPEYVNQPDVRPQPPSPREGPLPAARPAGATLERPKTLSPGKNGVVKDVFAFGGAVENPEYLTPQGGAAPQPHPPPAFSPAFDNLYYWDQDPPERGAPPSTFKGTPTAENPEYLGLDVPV

C=CC(=O)N1C[C@H](n2c(C#CC3CC3)c(C(=O)N[C@H](C)c3ccccc3)c3c(N)ncnc32)C[C@@H]1C [Compound (1), 7-((3R,5S)-1-acryloyl-5-methylpyrrolidin-3-yl)-4-amino-6-(cyclopropylethynyl)-N—((R)-1-phenylethyl)-7H-pyrrolo[2,3-d]pyrimidine-5-carboxamide]
T/C ratio of the mean total flux ([1]; 16.0 mg/kg/day PO QD 21 days): 16.9%
mean body weight change (BWC) ([1]; 16.0 mg/kg/day): 1.4%
T/C ratio of the mean total flux ([1]; 20.0 mg/kg/day PO QD 21 days): 4.7%
mean body weight change (BWC) ([1]; 20.0 mg/kg/day): −0.4%
net flux ratio of [^3H]prazosin (human BCRP; 0.01 μmol/L): 4.6±0.4
net flux ratio of [^3H]prazosin (human BCRP; 0.1 μmol/L): 4.0±0.3
net flux ratio of [^3H]prazosin (human BCRP; 0.5 μmol/L): 2.7±0.2
net flux ratio of [^3H]prazosin (human BCRP; 1 μmol/L): 1.8±0.2
net flux ratio of [^3H]prazosin (human BCRP; 5 μmol/L): 1.3±0.2
net flux ratio of [^3H]prazosin (human BCRP; 10 μmol/L): 1.1±0.1
IC50 (HER2 V777L): 2.1 ± 0.8 nM
IC50 (HER2): 5.6 ± 0.3 nM
IC50 (HER2 A775_G776insYVMA): 1 ± 0.2 nM
number of the 257 kinases tested with ≥50% inhibition of activity (257 kinases): 14
inhibition of activity for the other 243 kinases (257 kinases; weak inhibition or no inhibitory effect): < 50%
GI50 (A-431 cells): 8.64 ± 1.07 nM
GI50 (NCI-H1975 cells): 37.5 ± 20.4 nM
GI50 (HCC827 cells): 2.13 ± 0.61 nM
T/C ratio of the mean tumor volume ([2]; 7.8 mg/kg/day orally once daily 14 days): 52.8%
T/C ratio of the mean tumor volume ([2]; 12.5 mg/kg/day orally once daily 14 days): 17.4%
T/C ratio of the mean tumor volume ([2]; 20.0 mg/kg/day orally once daily 14 days): 8.7%
toxicity (deaths, clinical signs, body weight loss ≥20%) ([2]; 14 days treatment): acceptable toxicity
fraction unbound ([3]; dog, dogs, 0.2, 2, and 20 μmol/L): 0.02 to 0.026
fraction unbound ([3]; human, humans, 0.2, 2, and 20 μmol/L): 0.004 to 0.006
fraction unbound ([3]; monkey, monkeys, 0.2, 2, and 20 μmol/L): 0.015 to 0.02
fraction unbound ([3]; mouse, mice, 0.2, 2, and 20 μmol/L): 0.005 to 0.012
fraction unbound ([3]; rat, rats, 0.2, 2, and 20 μmol/L): 0.011 to 0.027
